The values below come from the NIST ThermoML archive (doi:10.1021/acs.jced.8b00635).

Each structure is given as a SMILES string. ± gives the expanded uncertainty stated by the source.

A short description of the series: activity coefficient (dimensionless); of the first substance listed, at infinite dilution; xn = mol fraction of the nth substance listed. The following applies: 101.33 kPa, Liquid, Chromatography, x1 = 0.

Regarding `C1CCCCC1` [cyclohexane] + CCCCC(CC)CN(CC(CC)CCCC)C(=O)C(C)C, the activity coefficient (323.15 K) stood at 2.77 ± 0.29; the activity coefficient (333.15 K) was 2.15 ± 0.23; the activity coefficient (343.15 K) was 1.74 ± 0.18; the activity coefficient (353.15 K) was determined as 1.41 ± 0.15; the activity coefficient (363.15 K) was determined as 1.18 ± 0.12; the activity coefficient (373.15 K) worked out at 0.966 ± 0.098.
As to `ClCCl` [dichloromethane] + CCCCC(CC)CN(CC(CC)CCCC)C(=O)C(C)C, the activity coefficient stood at 0.608 ± 0.065 (323.15 K); 0.506 ± 0.056 (333.15 K); 0.41 ± 0.048 (343.15 K); 0.339 ± 0.042 (353.15 K); 0.273 ± 0.037 (363.15 K); 0.225 ± 0.034 (373.15 K).
On to `CCCCCCCCCC` [decane] + CCCCC(CC)CN(CC(CC)CCCC)C(=O)C(C)C, for which the activity coefficient turned out to be 26.4 ± 2.8 (323.15 K); 22.7 ± 2.4 (333.15 K); 18.3 ± 1.9 (343.15 K); 15.2 ± 1.6 (353.15 K); 12.2 ± 1.3 (363.15 K); 9.89 ± 1 (373.15 K).
On to `CCCCC` [pentane] + CCCCC(CC)CN(CC(CC)CCCC)C(=O)C(C)C, for which the activity coefficient reads like this: (323.15 K) 0.795 ± 0.082; (333.15 K) 0.676 ± 0.071; (343.15 K) 0.544 ± 0.059; (353.15 K) 0.457 ± 0.051; (363.15 K) 0.382 ± 0.045; (373.15 K) 0.324 ± 0.041.
Regarding `C=CCCCCCCCC` [1-decene] + CCCCC(CC)CN(CC(CC)CCCC)C(=O)C(C)C, the activity coefficient turned out to be 24.3 ± 2.6 (323.15 K); 19.4 ± 2 (333.15 K); 16.8 ± 1.8 (343.15 K); 14 ± 1.5 (353.15 K); 11.1 ± 1.2 (363.15 K); 9.87 ± 1 (373.15 K).
With `CCCc1ccccc1` [propylbenzene] + CCCCC(CC)CN(CC(CC)CCCC)C(=O)C(C)C, the activity coefficient runs as follows: (323.15 K) 17.8 ± 1.9; (333.15 K) 14.7 ± 1.6; (343.15 K) 11.5 ± 1.2; (353.15 K) 9.18 ± 0.97; (363.15 K) 7.33 ± 0.77; (373.15 K) 5.72 ± 0.6.
Regarding `c1ccccc1` [benzene] + CCCCC(CC)CN(CC(CC)CCCC)C(=O)C(C)C, the activity coefficient reads like this: (323.15 K) 2.56 ± 0.27; (333.15 K) 2 ± 0.21; (343.15 K) 1.65 ± 0.17; (353.15 K) 1.37 ± 0.14; (363.15 K) 1.15 ± 0.12; (373.15 K) 0.954 ± 0.097.
As to `CCCCCCCCC` [nonane] + CCCCC(CC)CN(CC(CC)CCCC)C(=O)C(C)C, the activity coefficient by setting is: (323.15 K) 18.5 ± 1.9; (333.15 K) 16 ± 1.7; (343.15 K) 13.7 ± 1.4; (353.15 K) 11.8 ± 1.2; (363.15 K) 9.8 ± 1; (373.15 K) 8.67 ± 0.91.
With `CCCCCC(C)=O` [2-heptanone] + CCCCC(CC)CN(CC(CC)CCCC)C(=O)C(C)C, the activity coefficient (323.15 K) was 13.8 ± 1.4; the activity coefficient (333.15 K) came out at 10.6 ± 1.1; the activity coefficient (343.15 K) worked out at 8.16 ± 0.86; the activity coefficient (353.15 K) was 6.2 ± 0.65; the activity coefficient (363.15 K) worked out at 5 ± 0.53; the activity coefficient (373.15 K) came out at 4.04 ± 0.42.
`CCCCc1ccccc1` [butylbenzene] + CCCCC(CC)CN(CC(CC)CCCC)C(=O)C(C)C: the activity coefficient (323.15 K) was determined as 24.4 ± 2.6; the activity coefficient (333.15 K) was determined as 20.7 ± 2.2; the activity coefficient (343.15 K) is 17.5 ± 1.8; the activity coefficient (353.15 K) turned out to be 15 ± 1.6; the activity coefficient (363.15 K) was determined as 12.5 ± 1.3; the activity coefficient (373.15 K) came out at 10.6 ± 1.1.
As for `CCCCCCC` [heptane] + CCCCC(CC)CN(CC(CC)CCCC)C(=O)C(C)C, the activity coefficient runs as follows: (323.15 K) 4.37 ± 0.46; (333.15 K) 3.49 ± 0.37; (343.15 K) 2.78 ± 0.29; (353.15 K) 2.32 ± 0.24; (363.15 K) 2.02 ± 0.21; (373.15 K) 1.71 ± 0.18.
Consider `Cc1cccc(C)c1` [1,3-dimethylbenzene] + CCCCC(CC)CN(CC(CC)CCCC)C(=O)C(C)C, for which the activity coefficient runs as follows: (323.15 K) 11.8 ± 1.2; (333.15 K) 9.28 ± 0.98; (343.15 K) 7.2 ± 0.76; (353.15 K) 5.33 ± 0.56; (363.15 K) 4.13 ± 0.43; (373.15 K) 3.14 ± 0.33.
In the case of `CCOC(C)=O` [ethyl acetate] + CCCCC(CC)CN(CC(CC)CCCC)C(=O)C(C)C, the activity coefficient is, setting by setting: (323.15 K) 1.43 ± 0.15; (333.15 K) 1.22 ± 0.12; (343.15 K) 0.985 ± 0.1; (353.15 K) 0.87 ± 0.089; (363.15 K) 0.7 ± 0.073; (373.15 K) 0.566 ± 0.061.
For the molecule `C=CCCCC` [hex-1-ene] + CCCCC(CC)CN(CC(CC)CCCC)C(=O)C(C)C, the activity coefficient was 1.77 ± 0.18 (323.15 K); 1.37 ± 0.14 (333.15 K); 1.17 ± 0.12 (343.15 K); 0.957 ± 0.097 (353.15 K); 0.789 ± 0.081 (363.15 K); 0.678 ± 0.071 (373.15 K).
With `CCc1ccccc1` [ethylbenzene] + CCCCC(CC)CN(CC(CC)CCCC)C(=O)C(C)C, the activity coefficient reads like this: (323.15 K) 11.3 ± 1.2; (333.15 K) 8.75 ± 0.92; (343.15 K) 6.78 ± 0.71; (353.15 K) 4.96 ± 0.52; (363.15 K) 3.9 ± 0.41; (373.15 K) 2.88 ± 0.3.
Take `CCCC(C)C` [2-methylpentane] + CCCCC(CC)CN(CC(CC)CCCC)C(=O)C(C)C: the activity coefficient was 1.11 ± 0.11 (323.15 K); 0.938 ± 0.096 (333.15 K); 0.768 ± 0.079 (343.15 K); 0.639 ± 0.067 (353.15 K); 0.525 ± 0.057 (363.15 K); 0.428 ± 0.049 (373.15 K).
Turning to `CC(C)CC(C)(C)C` [2,2,4-trimethylpentane] + CCCCC(CC)CN(CC(CC)CCCC)C(=O)C(C)C, the activity coefficient (323.15 K) is 4.26 ± 0.45; the activity coefficient (333.15 K) stood at 3.33 ± 0.35; the activity coefficient (343.15 K) worked out at 2.6 ± 0.27; the activity coefficient (353.15 K) is 2.09 ± 0.22; the activity coefficient (363.15 K) stood at 1.74 ± 0.18; the activity coefficient (373.15 K) stood at 1.29 ± 0.13.
In the case of `CC(C)=O` [acetone] + CCCCC(CC)CN(CC(CC)CCCC)C(=O)C(C)C, the activity coefficient is, setting by setting: (323.15 K) 0.901 ± 0.092; (333.15 K) 0.745 ± 0.077; (343.15 K) 0.596 ± 0.064; (353.15 K) 0.465 ± 0.052; (363.15 K) 0.375 ± 0.045; (373.15 K) 0.294 ± 0.039.
In the case of `CC#N` [acetonitrile] + CCCCC(CC)CN(CC(CC)CCCC)C(=O)C(C)C, the activity coefficient was determined as 1.47 ± 0.15 (323.15 K); 1.21 ± 0.12 (333.15 K); 1.03 ± 0.1 (343.15 K); 0.861 ± 0.088 (353.15 K); 0.718 ± 0.075 (363.15 K); 0.568 ± 0.061 (373.15 K).
`CCCCCC` [hexane] + CCCCC(CC)CN(CC(CC)CCCC)C(=O)C(C)C: the activity coefficient came out at 1.91 ± 0.2 (323.15 K); 1.53 ± 0.16 (333.15 K); 1.26 ± 0.13 (343.15 K); 1.02 ± 0.1 (353.15 K); 0.845 ± 0.087 (363.15 K); 0.717 ± 0.075 (373.15 K).
Turning to `CCCCCCCC` [octane] + CCCCC(CC)CN(CC(CC)CCCC)C(=O)C(C)C, the activity coefficient runs as follows: (323.15 K) 11.9 ± 1.3; (333.15 K) 8.35 ± 0.88; (343.15 K) 6.04 ± 0.64; (353.15 K) 4.54 ± 0.48; (363.15 K) 3.36 ± 0.35; (373.15 K) 2.63 ± 0.28.
As for `ClC(Cl)(Cl)Cl` [tetrachloromethane] + CCCCC(CC)CN(CC(CC)CCCC)C(=O)C(C)C, the activity coefficient was found to be 1.94 ± 0.2 (323.15 K); 1.6 ± 0.17 (333.15 K); 1.22 ± 0.13 (343.15 K); 0.935 ± 0.095 (353.15 K); 0.727 ± 0.076 (363.15 K); 0.581 ± 0.062 (373.15 K).
As for `C=O` [methanal] + CCCCC(CC)CN(CC(CC)CCCC)C(=O)C(C)C, the activity coefficient is, setting by setting: (323.15 K) 0.056; (333.15 K) 0.052; (343.15 K) 0.048; (353.15 K) 0.044; (363.15 K) 0.041; (373.15 K) 0.037.
With `CCCCCCCCCCC` [undecane] + CCCCC(CC)CN(CC(CC)CCCC)C(=O)C(C)C, the activity coefficient (323.15 K) worked out at 39.2 ± 4.1; the activity coefficient (333.15 K) is 35.9 ± 3.8; the activity coefficient (343.15 K) came to 31.5 ± 3.3; the activity coefficient (353.15 K) worked out at 27.5 ± 2.9; the activity coefficient (363.15 K) was 25.5 ± 2.7; the activity coefficient (373.15 K) came out at 22.7 ± 2.4.
As to `C=CCCCCCC` [oct-1-ene] + CCCCC(CC)CN(CC(CC)CCCC)C(=O)C(C)C, the activity coefficient by setting is: (323.15 K) 7.52 ± 0.79; (333.15 K) 6.09 ± 0.64; (343.15 K) 4.86 ± 0.51; (353.15 K) 3.76 ± 0.4; (363.15 K) 2.94 ± 0.31; (373.15 K) 2.21 ± 0.23.
As for `ClC(Cl)Cl` [trichloromethane] + CCCCC(CC)CN(CC(CC)CCCC)C(=O)C(C)C, the activity coefficient turned out to be 1.15 ± 0.12 (323.15 K); 0.966 ± 0.098 (333.15 K); 0.746 ± 0.077 (343.15 K); 0.586 ± 0.063 (353.15 K); 0.463 ± 0.052 (363.15 K); 0.372 ± 0.044 (373.15 K).
For the molecule `C=CCCCCC` [1-heptene] + CCCCC(CC)CN(CC(CC)CCCC)C(=O)C(C)C, the activity coefficient was 4.02 ± 0.42 (323.15 K); 2.89 ± 0.3 (333.15 K); 2.31 ± 0.24 (343.15 K); 1.8 ± 0.19 (353.15 K); 1.25 ± 0.13 (363.15 K); 0.974 ± 0.099 (373.15 K).
`Cc1ccccc1` [toluene] + CCCCC(CC)CN(CC(CC)CCCC)C(=O)C(C)C: the activity coefficient (323.15 K) is 5.11 ± 0.54; the activity coefficient (333.15 K) was 4.25 ± 0.45; the activity coefficient (343.15 K) was 3.25 ± 0.34; the activity coefficient (353.15 K) amounted to 2.5 ± 0.26; the activity coefficient (363.15 K) was 1.88 ± 0.2; the activity coefficient (373.15 K) came to 1.46 ± 0.15.
